Results as given in patent US20230365537A1, “POLO LIKE KINASE 4 INHIBITORS” (ORIC Pharmaceuticals, Inc., priority 2021, published 2023).

Experiments:
[1] = biological target: human recombinant Aurora A (Homo sapiens (Human), UniProt O14965); assay: Aurora A Kinase Biochemical Assay (ADP-Glo); details: ratio of Aurora A IC50 to PLK4 IC50 (selectivity)
Experimental: (§1) Activity of human recombinant Aurora A (ThermoFisher, cat #PR5935A) was measured by quantification of adenosine diphosphate (ADP) using the ADP-Glo Kinase Assay Kit (Promega, cat #V9102). […] 5 µL of 5.0 nM Aurora A in assay buffer (50 mM HEPES, pH 7.5, 0.01% Brij-35, 0.01% BSA, 10 mM MgCl2, 1 mM EGTA, 1 mM DTT) was added to the plates. Test compounds and Aurora A were incubated for 15 minutes at room temperature (RT). […] Reactions were stopped and the remaining ATP depleted by adding 10uL of ADP-Glo reagent (Promega, cat#V912B) and incubating for 40 minutes at RT. The simultaneous conversion of the remaining ADP to ATP and measurement of the newly synthesized ATP was achieved by addition of 20 µL Kinase Detection reagent (Promega, cat #V914B), incubation for 30 min at RT, and luminescence detection using the EnVision plate reader (PerkinElmer). […] The IC50 values reported in Table 2 were determined using four parameter non-linear regression curve fit.

human recombinant PLK4 = human recombinant PLK4 (Homo sapiens (Human), UniProt O00444); assay: PLK4 Biochemical Assay (ADP-Glo); details: 0.5 nM PLK4, 8.0 µM ATP, 4.7 µM MBP, 6 hours at RT
Experimental: as §1, with “recombinant PLK4” for “recombinant Aurora A”, “cat #PV6396)” for “cat #PR5935A)”, “of 1.0” for “of 5.0”, “nM PLK4 protein” for “nM Aurora A”, “and PLK4” for “and Aurora A”, “adding 10 µL” for “adding 10uL”

[2] = biological target: human recombinant Aurora B (Homo sapiens (Human), UniProt Q96GD4); assay: Aurora B Kinase Biochemical Assay (ADP-Glo); details: ratio of Aurora B IC50 to PLK4 IC50 (selectivity)
Experimental: as §1, with “Aurora B” for “Aurora A”, “cat #PR9210B)” for “cat #PR5935A)”, “of 20” for “of 5.0”

Chain of human recombinant Aurora A (O14965 whole entry): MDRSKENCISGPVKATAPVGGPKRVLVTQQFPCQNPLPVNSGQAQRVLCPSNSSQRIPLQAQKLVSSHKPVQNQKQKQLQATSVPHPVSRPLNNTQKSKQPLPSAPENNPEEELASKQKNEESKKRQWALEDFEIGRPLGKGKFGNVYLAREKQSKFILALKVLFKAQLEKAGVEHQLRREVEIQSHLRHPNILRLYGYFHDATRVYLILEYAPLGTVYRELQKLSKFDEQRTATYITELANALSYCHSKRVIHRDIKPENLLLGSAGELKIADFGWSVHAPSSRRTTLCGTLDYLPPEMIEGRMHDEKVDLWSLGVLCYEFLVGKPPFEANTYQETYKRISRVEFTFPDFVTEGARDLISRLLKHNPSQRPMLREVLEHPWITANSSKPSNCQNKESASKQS
Chain of human recombinant Aurora B (Q96GD4 whole entry): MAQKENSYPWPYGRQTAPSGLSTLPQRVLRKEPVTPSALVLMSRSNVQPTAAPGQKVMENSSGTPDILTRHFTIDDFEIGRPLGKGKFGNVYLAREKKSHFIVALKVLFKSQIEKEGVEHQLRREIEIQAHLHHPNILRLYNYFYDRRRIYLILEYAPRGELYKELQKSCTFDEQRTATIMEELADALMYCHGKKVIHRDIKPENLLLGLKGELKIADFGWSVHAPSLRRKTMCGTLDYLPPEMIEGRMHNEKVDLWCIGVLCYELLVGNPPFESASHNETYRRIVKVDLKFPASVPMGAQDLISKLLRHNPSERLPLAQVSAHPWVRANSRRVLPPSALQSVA
Chain of human recombinant PLK4 (O00444 whole entry): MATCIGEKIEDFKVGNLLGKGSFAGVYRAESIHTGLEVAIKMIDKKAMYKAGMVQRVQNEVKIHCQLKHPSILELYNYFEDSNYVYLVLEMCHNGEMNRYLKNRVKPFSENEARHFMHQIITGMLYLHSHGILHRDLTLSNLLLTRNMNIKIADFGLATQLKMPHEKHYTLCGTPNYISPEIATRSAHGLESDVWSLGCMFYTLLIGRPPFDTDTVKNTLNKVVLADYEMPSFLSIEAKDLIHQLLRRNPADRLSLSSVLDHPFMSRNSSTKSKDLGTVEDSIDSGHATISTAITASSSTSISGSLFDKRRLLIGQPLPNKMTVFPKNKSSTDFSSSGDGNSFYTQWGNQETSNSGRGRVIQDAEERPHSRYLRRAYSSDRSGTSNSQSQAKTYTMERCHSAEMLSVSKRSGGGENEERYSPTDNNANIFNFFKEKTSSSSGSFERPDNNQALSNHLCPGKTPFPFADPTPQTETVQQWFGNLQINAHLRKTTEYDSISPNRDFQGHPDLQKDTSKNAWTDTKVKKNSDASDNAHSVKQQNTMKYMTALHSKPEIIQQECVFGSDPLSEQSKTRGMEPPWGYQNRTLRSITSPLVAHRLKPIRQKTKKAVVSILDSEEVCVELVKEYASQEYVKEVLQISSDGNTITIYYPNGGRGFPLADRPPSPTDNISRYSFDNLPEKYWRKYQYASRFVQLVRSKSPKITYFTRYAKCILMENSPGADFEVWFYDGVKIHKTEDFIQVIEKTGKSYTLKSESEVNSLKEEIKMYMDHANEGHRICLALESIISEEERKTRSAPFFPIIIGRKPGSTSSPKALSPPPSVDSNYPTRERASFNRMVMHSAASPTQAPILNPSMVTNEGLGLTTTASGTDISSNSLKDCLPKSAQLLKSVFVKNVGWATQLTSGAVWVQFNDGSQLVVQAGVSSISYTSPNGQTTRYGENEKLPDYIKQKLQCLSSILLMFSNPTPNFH

SMILES | [Aurora A IC50 (nM)]/[PLK4 IC50 (nM)] [1] | IC50 (human recombinant PLK4) [nM] | [Aurora B IC50 (nM)]/[PLK4 IC50 (nM)] [2]
COc1ccc2c(c1)[C@]1(C[C@H]1c1ccc3c(Nc4ncnc(N5CCCOCC5)c4OC)n[nH]c3c1)C(=O)N2 [Example 44, (1R,2S)-5′-methoxy-2-(3-{[5-methoxy-6-(1,4-oxazepan-4-yl)pyrimidin-4-yl]amino}-1H-indazol-6-yl)spiro[cyclopropane-1,3′-indol]-2′(1′H)-one] | 1269.119 | 20.7 | 45.11
COc1ccc2c(c1)[C@]1(C[C@H]1c1ccc3c(Nc4cc(N5CCC5)ncn4)n[nH]c3c1)C(=O)N2 [Example 45, (1R,2S)-2-(3-{[6-(azetidin-1-yl)pyrimidin-4-yl]amino}-1H-indazol-6-yl)-5′-methoxyspiro[cyclopropane-1,3′-indol]-2′(1′H)-one] | 137.8309 | 15.5 | 4.603
COc1ccc2c(c1)[C@]1(C[C@H]1c1ccc3c(Nc4nc(Cl)c(OC)c(N5CCOCC5)n4)n[nH]c3c1)C(=O)N2 [Example 49, (1R,2S)-2-(3-{[4-chloro-5-methoxy-6-(morpholin-4-yl)pyrimidin-2-yl]amino}-1H-indazol-6-yl)-5′-metboxyspiro[cydopropane-1,3′-indol]-2′(1′H)-one] | 253.4031 | 19.1 | 53.19
COc1ccc2c(c1)[C@]1(C[C@H]1c1ccc3c(Nc4cn(CCO)nc4OC)n[nH]c3c1)C(=O)N2 [Example 50, (1R,2S)-2-(3-{[1-(2-hydroxyethyl)-3-methoxy-1H-pyrazol-4-yl]amino}-1H-indazol-6-yl)-S′-methoxyspiro[cyclopropane-1,3′-indol]-2′(1′H)-one] | 361.809 | 61.7 | 27.4923
COc1ccc2c(c1)[C@]1(C[C@H]1c1ccc3c(Nc4ncnc(N5CCS(=O)(=O)CC5)c4Cl)n[nH]c3c1)C(=O)N2 [Example 53] | 4028.777 | 1.25 | 251.7986
COc1ccc2c(c1)[C@]1(C[C@H]1c1ccc3c(Nc4ncc(CCO)nc4OC)n[nH]c3c1)C(=O)N2 [Example 55, (lR,2S)-2-(3-{[5-(2-hydroxyethyl)-3-methoxypyrazin-2-yl]amino}-1H-indazol-6-yl)-5′-methozyspiro[cyclopropano-1,3′-indol]-2′(1′H)-one] | 3251.804 | 1.25 | 17.9
COc1ccc2c(c1)[C@]1(C[C@H]1c1ccc3c(Nc4cc(N5CCS(=O)(=O)CC5)nc(C5CC5)n4)n[nH]c3c1)C(=O)N2 [Example 59, (1R,2S)-2-(3-((2-cyclopropyl-6-(1,1-dioxidothiomorpholino)pyrimidin-4-yl)amino)-1H-indazol-6-yl)-5′-methoxyspiro[cyclopropane-1,3′-indolin]-2′-one] | 108.4696 | 8.44 | 39.23
COc1ccc2c(c1)[C@]1(C[C@H]1c1ccc3c(Nc4cc(N5CCS(=O)(=O)CC5)nc(C)n4)n[nH]c3c1)C(=O)N2 [Example 60, (1R,2S)-2-(3-((6-(1,1-dioxidothiomorpholino)-2-methylpyrimidin-4-yl)amino)-1H-indazol-6-yl)-5′-methoxyspiro[cyclopropane-1,3′-indolin]-2′-one] | 69.69 | 7.36 | 7.855
COc1ccc2c(c1)[C@]1(C[C@H]1c1ccc3c(Nc4cn(C)nc4C)n[nH]c3c1)C(=O)N2 [Example 63, (1R,2S)-2-{3-[(1,3-dimethyl-1H-pyrazol-4-yl)amino]-1H-indazol-6-yl}-5′-methoxyspiro[cyclopropane-1,3′-indol]-2′(1′H)-one] | 56.84 | 72.2 | 16.69
COc1ccc2c(c1)[C@]1(C[C@H]1c1ccc3c(Nc4cn(C)nc4C(F)(F)F)n[nH]c3c1)C(=O)N2 [Example 64, (1R,2S)-5′-methoxy-2-(3-{[1-methyl-3-(trifluoromethyl)-1H-pyrazol-4-yl]amino)-1H-indazol-6-yl)spiro[cyclopropane-1,3′-indol]-2′(1′H)-one] | 210.2116 | 87 | 98.84
COc1ccc2c(c1)[C@]1(C[C@H]1c1ccc3c(Nc4cnn(C)c4)n[nH]c3c1)C(=O)N2 [Example 65] | 82.48 | 44.2 | 5.356
COc1ccc2c(c1)[C@]1(C[C@H]1c1ccc3c(Nc4cn(C)nc4C#N)n[nH]c3c1)C(=O)N2 [Example 66, 4-({6-[(1R,2S)-5′-methoxy-2′-oxo-1′,2′-dihydrospiro[cyclopropane-1,3′-indol]-2-yl]-1H-indazol-3-yl}amino)-1-methyl-1H-pyrazole-3-carbonitrile] | 21.37 | 2340 | 7.607
COc1ccc2c(c1)[C@]1(C[C@H]1c1ccc3c(Nc4cc(C)nn4C)n[nH]c3c1)C(=O)N2 [Example 74] | 293.0556 | 3.31 | 37.14
COc1ccc2c(c1)[C@]1(C[C@H]1c1ccc3c(Nc4c(OC)cnn4C)n[nH]c3c1)C(=O)N2 [Example 75, (1R,2S)-5′-methoxy-2-{3-[(4-methoxy-1-methyl-1H-pyrazol-5-yl)amino]-1H-indazol-6-yl}spiro[cyclopropane-1,3′-indol]-2′(1′H)-one] | 173.4097 | 157 | 23.28
COc1ccc2c(c1)[C@]1(C[C@H]1c1ccc3c(Nc4nn(C)cc4OC)n[nH]c3c1)C(=O)N2 [Example 79, (1R,2S)-5′-methoxy-2-{3-[(4-methoxy-1-methyl-1H-pyrazol-3-yl)amino]-1H-indazol-6-yl}spiro[cyclopropane-1,3′-indol]-2′(rH)-one] | 210.5378 | 91.9 | 6.986
COc1ccc2c(c1)[C@]1(C[C@H]1c1ccc3c(Nc4nc(C)cnc4C)n[nH]c3c1)C(=O)N2.O=C(O)C(F)(F)F [Example 82, (1R,2S)-2-{3-[(3,6-dimethylpyrazin-2-yl)amino]-1H-indazol-6-yl}-5′-methoxyspiro[cyclopropane-1,3′-indol]-2′(1′H)-one] | 187.8524 | 6.21 | 38.55
COc1ccc2c(c1)[C@]1(C[C@H]1c1ccc3c(Nc4nnccc4OC)n[nH]c3c1)C(=O)N2 [Example 90, (1R,2S)-5′-methoxy-2-{3-[(4-methozypyridazin-3-yl)amino]-1H-indazol-6-yl}spiro[cyclopropane-1,3′-indol]-2′(1′H)-one] | 1505.334 | 17.8 | 44.33
